Like-named read-outs stand apart in the source and are kept apart here.
Assays:
Type in all cases: cell-based
[1] = target: K-ras G12D (Homo sapiens, UniProt P01116, G12D); assay: G-LISA Ras activation assay, 293H cells transfected with G12D mutant; details: for IC50: 1 hour treatment
Procedure: (§1) 293H cells were seeded in 6-wells at 0.6×10^6 cells per well and transfected next day with 5 μg of Ras wild-type, or G12C, G12D or G12V mutant DNA plasmid vector using transfection reagent Lipofectamine 3000. Next day cells were treated with 3.125-50 μM of Ras compounds for 1 hour. Wild-type transfected cells were subsequently treated with 100 ng/ml EGF for 2 minutes. Cells were washed once in ice-cold PBS, lysed in complete lysis buffer on ice, and processed by G-LISA according to Cytoskeleton protocol.
(§2) In-cell selectivity of the compounds presented herein against a specific K-ras mutant form can also be tested as shown in the following exemplary experiment. 293H cells were seeded in 6-wells and transfected next day with 5 μg of Ras wild-type, or G12C, G12D or G12V mutant DNA plasmid vector. Next day cells were treated with 3.125-50 μM of Ras compounds for 1 hour. Wild-type transfected cells were subsequently treated with 100 ng/ml EGF for 2 minutes. Cells were washed once in ice-cold PBS, lysed in complete lysis buffer on ice, and processed by G-LISA according to Cytoskeleton protocol. FIG. 1 depicts exemplary results.
as §1, with “In still further experiments, the inventors tested selected compounds in a G-LISA assay to compare IC50 values for wild-type and various mutant K-Ras (G12D, G12V) using the following general protocol: 293H” for “293H”

[2] = target: K-ras G12V (Homo sapiens, UniProt P01116, G12V); assay: G-LISA Ras activation assay, 293H cells transfected with G12V mutant; details: 1 hour treatment
Procedure: as §1, §2
as §1, with “In still further experiments, the inventors tested selected compounds in a G-LISA assay to compare IC50 values for wild-type and various mutant K-Ras (G12D, G12V) using the following general protocol: 293H” for “293H”

[3] = tested on: Panc1 (G12D) cells; assay: 72 hr cell viability (CellTiterBlue); details: GI50, 72 hr
Procedure: (§3) Viability assays were performed on exemplary compounds and Table 2 below lists exemplary results for selected compounds tested on wild type (Ishikawa) and various K-ras mutants (Panc1-G12D; Panc10.05-G12D; HCT116-G13D).
(§4) Cells are counted and seeded at 1000 cells/36 ul medium/well into 384-well microplates. Cells are returned to 37° C. CO2 incubator for 18 hr. Drug is made as 200× in DMSO and diluted into medium to 10×. To each well is added 4 ul 10× drug, and plates are returned to the incubator. Final assay DMSO concentration is 0.5%. After 72 hr, 8 ul CellTiterBlue (Promega) is added to each well. After 3 hr, fluorescence (Ex550/Em590) is determined on the Victor Plate Reader (Perkin Elmer). Assay range is determined by DMSO control (100% viability) and 100 uM tamoxifen (0% viability). GI50 values are calculated using Graphpad Prism.

[4] = tested on: Panc10.05 (G12D) cells; assay: 72 hr cell viability (CellTiterBlue); details: GI50, 72 hr
Procedure: as §3, §4

[5] = tested on: Erk phosphorylation in Panc1 (G12D) cells; assay: In-Cell Western Erk phosphorylation; details: EC50, one hour treatment; read-out: In-Cell Western Erk phosporylation Panc1 (G12D)
Procedure: (§5) In-cell phosphorylation assays for Erk and Akt were performed on various of the compounds and exemplary results are shown in Table 3 below using […] and Panc10.05 cell lines for G12D K-ras mutants.
(§6) Cells are seeded in complete medium into black sided, clear-bottom 384-well microplates at 3000 cells/[…]/well. Plates are returned to 37° C. CO2 incubator for 18 hr. Drug is made as 200× in DMSO and diluted into medium to 10×. To each well is added 4 ul 10× test article or controls, and plates are returned to the incubator. Final assay DMSO concentration is 0.5%. After one hour, cells are fixed in formaldehyde, rinsed & permeabilized with triton X-100, and blocked with BSA/Goat serum blocking solution. Primary phospho-Akt and phospho-ERK antibodies are added and plates are incubated overnight at 4° C. Plates are rinsed with Tween-20 wash buffer and secondary antibody (Goat anti-rabbit, Thermofisher) is added. After 2 hours, plates are rinsed in Tween-20 wash buffer, and then PBS. Plates are imaged on the Celigo (Nexcelom) and cellular fluorescence is quantitated. Full inhibition of phospho-Akt is achieved with 1 uM BEZ235 (Sellekchem), while full inhibition of phospho-ERK is achieved with 1 uM MEK Inhibitor II Calbiochem). EC50 values are calculated using Graphpad Prism.

[6] = tested on: Erk phosphorylation in Panc10.05 (G12D) cells; assay: In-Cell Western Erk phosphorylation; details: EC50, one hour treatment; read-out: In-Cell Western Erk phosporylation Panc10.05 (G12D)
Procedure: as §5, §6

[7] = tested on: Ras in BxPC-3 (K-Ras wild-type), Panc10.05 (K-Ras G12D mutant), Capan-2 (K-Ras G12V) cells; assay: G-LISA Ras inhibition in cancer cell lines (FIG. 2); details: 3.1 to 25 μM, 1 hour, then 100 ng/ml EGF 2 minutes
Procedure: To verify the results in specific cancer cell lines, cancer cell lines BxPC-3 (K-Ras wild-type), Panc10.05 (K-Ras G12D mutant), and Capan-2 (K-Ras G12V) were treated with 3.1 to 25 μM of Ras compound A0837 for 1 hour before stimulation with 100 ng/ml EGF for 2 minutes. Cells were washed once in ice-cold PBS, lysed in complete lysis buffer on ice, and processed by G-LISA according to Cytoskeleton protocol.

[8] = target: K-Ras wild-type (Homo sapiens, UniProt P01116); assay: G-LISA Ras activation assay, 293H cells transfected with Ras wild-type, EGF-stimulated; details: 1 hour treatment, 100 ng/ml EGF
Procedure: as §1, §2
as §1, with “In still further experiments, the inventors tested selected compounds in a G-LISA assay to compare IC50 values for wild-type and various mutant K-Ras (G12D, G12V) using the following general protocol: 293H” for “293H”

Chain of K-ras G12D (P01116 1-188 isoform P01116-2 G12D): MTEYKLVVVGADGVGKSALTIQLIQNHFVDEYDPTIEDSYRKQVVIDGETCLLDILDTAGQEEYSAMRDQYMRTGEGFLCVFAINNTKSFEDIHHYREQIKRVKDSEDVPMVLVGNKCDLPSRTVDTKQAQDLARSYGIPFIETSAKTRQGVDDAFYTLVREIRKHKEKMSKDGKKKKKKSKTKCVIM
Chain of K-ras G12V (P01116 1-188 isoform P01116-2 G12V): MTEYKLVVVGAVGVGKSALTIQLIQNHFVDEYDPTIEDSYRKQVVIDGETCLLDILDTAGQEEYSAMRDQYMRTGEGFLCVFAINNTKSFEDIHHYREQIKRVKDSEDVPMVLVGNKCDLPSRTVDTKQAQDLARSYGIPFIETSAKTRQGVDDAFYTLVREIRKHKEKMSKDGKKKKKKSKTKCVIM
Chain of K-Ras wild-type (P01116 1-188 isoform P01116-2): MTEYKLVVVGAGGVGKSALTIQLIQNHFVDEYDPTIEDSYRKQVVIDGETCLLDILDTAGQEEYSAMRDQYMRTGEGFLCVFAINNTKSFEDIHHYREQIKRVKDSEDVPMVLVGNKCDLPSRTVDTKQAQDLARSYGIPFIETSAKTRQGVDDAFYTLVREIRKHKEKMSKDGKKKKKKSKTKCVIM

Cc1nc(C)c(C(=O)Nc2nc(-c3ccc4[nH]c(=O)[nH]c4c3)cs2)s1 [Compound 4562]
In-cell selectivity among K-ras forms, G-LISA (FIG. 1) ([1]; 293H transfected with wild-type, G12C, G12D or G12V, 3.125-50 μM, 1 hour): pronounced selectivity towards the G12D mutant form | IC50 for G12D compared to the wild type, G-LISA (FIG. 1) ([1]; 293H transfected, 3.125-50 μM, 1 hour): lower IC50 as compared to the wild type | IC50 ([1]; Table 1, G-LISA, 293H transfected, read-out: IC50 (μM) G12D): 10 µM | IC50 ([1]; Table 5, IC50, 293H transfected, read-out: G-LISA (G12D)): 7 to 13 µM | IC50 ([2]; Table 1, G-LISA, 293H transfected, read-out: IC50 (μM) G12V): 38 µM | IC50 ([2]; Table 5, IC50, 293H transfected, read-out: G-LISA (G12V)): 38 µM | IC50 [3]: 6 µM | IC50 [4]: 2000 nM | EC50 [5]: 5 µM | EC50 [6]: 4 µM | Selectivity of Ras inhibition in cancer cell lines, G-LISA (FIG. 2) [7]: clear selectivity towards K-ras mutant G12D | IC50 ([8]; Table 1, G-LISA, 293H transfected, read-out: IC50 (μM) Wild-type): 0.5 µM | IC50 ([8]; Table 5, IC50, 293H transfected, read-out: G-LISA (wild type)): 0.5 µM

Source: patent US10487078B2, “Compositions and methods of targeting mutant K-RAS” (NantBio, Inc., priority 2015, dated 2019)
